Test results as given in PMC11836371, “Virtual fragment screening for DNA repair inhibitors in vast chemical space” (Nature Communications, 2025).
pIC50: −log10 of the molar value. Where “and” joins values, the source holds several entries; their conditions need not be identical. Identical values can stand only once. Like-named read-outs stand apart in the source and are kept apart here.

Columns and labels:
[1] = target: T1, human OGG1 enzyme (Homo sapiens, UniProt O15527); test: OGG1 glycosylase activity assay (enzyme inhibition, APE1-coupled fluorescence); format: biochemical; conditions: for increase of inhibitory potency compared to fragment 1: ratio of IC50 values
[2] = target: T1, human OGG1 enzyme; test: Differential scanning fluorimetry (DSF) thermal shift assay; format: binding; design: ∆Tm (K): unit of the concentration uncertain; conditions: for ΔTm: concentration not given
Description: The temperature was increased from 20 °C to 85 °C with 10 readings/degree. Tm values were calculated using an excel template and fitting to the Boltzmann equation in Prism v.6.07 (GraphPad Software).

[3] = tested on: A2780 cells; test: Cancer cell viability assay (resazurin), A2780; format: cell-based; conditions: two independent experiments; for percentage cell viability: A2780, 100 μM, 100 µM; for viability at 100 µM: Homo sapiens, A2780, A2780, 100 μM, read-out: percentage cell viability
In short: (§1)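 Cells were exposed for 72 h at 37 °C, 5% CO2 to 11-point compound dose-response curves in 10% FBS medium. Resazurin (final 10 µg/mL) was then added for 6 h and resorufin fluorescence read (ex 544/em 595 nm). Viability relative to untreated wells; EC50 from curve fitting.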

[4] = Cell viability assay (resazurin), BJhTERT non-transformed control; format: cell-based; conditions: human, BJhTERT immortalized fibroblast cells, BJhTERT, 100 μM, two independent experiments; read-out: percentage cell viability
In short: (§2)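 Cells in FBS-supplemented media exposed to compound for 72 h at 37 °C, 5% CO2, then resazurin added to 10 µg/mL final. Viability expressed relative to untreated control wells; EC50 derived by curve fitting.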

[5] = tested on: BJhTERT cells; test: as above; format: cell-based; conditions: BJhTERT, 100 μM, two independent experiments
In short: as §2

[6] = tested on: A549 cells; test: Cancer cell viability assay (resazurin), A549; format: cell-based; conditions: two independent experiments; for percentage cell viability: A549, 100 μM, 100 µM; for viability at 100 µM: Homo sapiens, A549, A549, 100 μM, read-out: percentage cell viability
Description: Three different cancer cell lines A2780 (ovarian cancer, ECACC 93112519), A549 (lung cancer, ATCC 60150896) and HCT116 (colon cancer, ATCC CCL-247), and one immortalized fibroblast cell line (BJhTERT) as control, were seeded in black/clear 384-well plates (Corning #3764), 50 µL/well, containing 11 concentrations, nano-dispensed, dose-response curves of the test compounds. A2780, HCT116, and HEK293T cell lines were authenticated with STR profiling, frozen down, and these stocks were used in experiments. The A2780 cells were cultured in RPMI 1640, the A549 and BJhTERT cells in DMEM, and the HCT116 cells in McCoys 5 A medium. All media were supplemented with 10% FBS and 1% P/S. All cell culture media, additives, and reagents were purchased from Thermo Fisher Scientific. The cell plates were incubated 72 hours in a humidified incubator at 37 °C with 5% CO2, after which resazurin (Sigma-Aldrich), 10 µL/well, was added to a final concentration of 10 µg/mL. The plates were incubated for 6 hours with resazurin followed by fluorescence readings in a Sense plate reader (Hidex), resorufin protocol (ex 544 nm/em 595 nm). The cell viability was calculated compared to untreated control wells and the EC50 values were determined in XLfit (IDBS).

[7] = Plasma protein binding in human plasma (RED); format: in vitro ADME; conditions: plasma (50% plasma, 50% isotonic buffer), pH 7.4, read-out: Protein plasma binding, fu (%)
Description: Pooled human plasma was provided by Uppsala Academic Hospital and was collected from two donors (non-smoking) (citric acid). In brief, 0.2 mL of the plasma (50% plasma, 50% isotonic buffer) test solution (typically 10 µM final compound concentration) was transferred to the membrane tube in the RED insert (ThermoFisher Scientific). 0.35 ml isotonic phosphate buffer pH 7.4 was added to the other side of the membrane. The 96-well base plate was then sealed with an adhesive plastic film (Scotch Pad) to prevent evaporation. The sample was incubated with rapid rotation (>>900 rpm) on a Kisker rotational incubator at 37 °C for 4 h to achieve equilibrium. Prior to LC-MS/MS analysis the plasma and buffer samples were treated with the addition of Methanol (1:3) containing Warfarin as an internal standard to precipitate proteins. The standard curve was created using the plasma standard. The plate was then sealed, and centrifuged and the supernatant was analyzed by liquid chromatography coupled to triple quadrupole mass spectrometry (LC-MS/MS).

[8] = tested on: HCT116 cells; test: Cancer cell viability assay (resazurin), HCT116; format: cell-based; conditions: two independent experiments; for percentage cell viability: HCT116, 100 μM, 100 µM
In short: as §1

[9] = Figure 3B source data, three independent experiments, read-out: IC50 OGG1
[10] = 99 (unit uncertain) as printed in sheet footnote

T1 sequence (O15527 whole entry, the tested form may be a part): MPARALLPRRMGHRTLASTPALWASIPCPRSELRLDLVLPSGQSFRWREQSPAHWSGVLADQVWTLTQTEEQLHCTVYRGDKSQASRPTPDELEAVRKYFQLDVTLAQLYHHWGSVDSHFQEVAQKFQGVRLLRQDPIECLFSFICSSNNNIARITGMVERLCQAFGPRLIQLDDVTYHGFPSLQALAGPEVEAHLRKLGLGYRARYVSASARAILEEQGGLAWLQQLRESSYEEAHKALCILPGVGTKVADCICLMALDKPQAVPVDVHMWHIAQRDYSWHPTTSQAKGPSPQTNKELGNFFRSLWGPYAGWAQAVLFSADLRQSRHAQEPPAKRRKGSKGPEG

| OGG1 inhibition, dose-response (Figure2C) ([1]; Concentration (M) 1.93e-7) | OGG1 inhibition, dose-response (Figure2C) ([1]; Concentration (M) 3.87e-7) | OGG1 inhibition, dose-response (Figure2C) ([1]; Concentration (M) 7.73e-7) | OGG1 inhibition, dose-response (Figure2C) ([1]; Concentration (M) 1.55e-6) | OGG1 inhibition, dose-response (Figure2C) ([1]; Concentration (M) 3.09e-6) | OGG1 inhibition, dose-response (Figure2C) ([1]; Concentration (M) 6.19e-6) | OGG1 inhibition, dose-response (Figure2C) ([1]; Concentration (M) 1.24e-5) | OGG1 inhibition, dose-response (Figure2C) ([1]; Concentration (M) 2.48e-5) | OGG1 inhibition, dose-response (Figure2C) ([1]; Concentration (M) 4.95e-5) | OGG1 inhibition, dose-response (Figure2C) ([1]; Concentration (M) 9.9e-5) | pIC50 [1, 9] | increase of inhibitory potency compared to fragment 1 [1] [fold] | pIC50 ([1]; read-out: IC50) | ∆Tm (K) ([2]; 99 μM) | ∆Tm (K) [2, 10] [K] | ΔTm [2] [K] | Structure (SMILES) | percentage cell viability [3] [%] | viability at 100 µM [3] [%] | viability at 72 h, 100 µM [4] [%] | percentage cell viability [5] [%] | other results |
| --- | --- | --- | --- | --- | --- | --- | --- | --- | --- | --- | --- | --- | --- | --- | --- | --- | --- | --- | --- | --- | --- |
| 17.95 and 20.93 and 16.93 and 26.66 | 29.14 and 34.59 and 30.82 and 38.2 | 44.06 and 48.74 and 48.24 and 52.23 | 58.26 and 62.87 and 66.96 and 67.73 | 72.68 and 77.92 and 76.19 and 83.17 | 85.12 and 84.21 and 85.13 and 86.27 | 90.55 and 92.85 and 89.92 and 91.47 | 92.75 and 97.64 and 93.54 and 94.76 | 96.49 and 97.45 and 94.85 and 97.57 | 96.97 and 96.91 and 94.08 and 97.24 | 6.30 and 6.31 and 6.29 | > 165 | 6.22 | 8.1 ± 0.1 | 8.1 ± 0.1 | 8.1 | Cc1nc(-c2ccc(CC(=O)Nc3noc4c3CCCC4)cc2)c(C)[nH]1 [compound 17] | 6.29 | 5.42 | 28 | 38.43 | ∆Tm (K) ([2]; 99 μM, listed as Compound 17): 8.1 K; percentage cell viability [6]: 56.76%; viability at 100 µM [6]: 52.6%; fraction unbound at 4 h, 10 µM [7]: 0.014; percentage cell viability [8]: 23.58%; viability at 100 µM ([8]; Homo sapiens, HCT-116, HCT116, 100 μM, read-out: percentage cell viability): 11.8% |
| 9.69 and 17.93 and 10.41 and 18.5 | 29.24 and 27.63 and 28.59 and 28.11 | 53.6 and 49.32 and 48.44 and 47.84 | 59.42 and 67.01 and 59.08 and 66.62 | 78.97 and 77.03 and 76.1 and 78.52 | 89 and 85.95 and 85.06 and 85.7 | 91.41 and 94.39 and 90.13 and 92.43 | 94.22 and 97.46 and 92.46 and 96.53 | 94.91 and 98.52 and 101.44 and 105.23 | 93.34 and 96.5 and 102.87 and 104.38 | 6.35 and 6.19 and 6.21 | > 165 | 6.22 | 9.0 ± 0.2 | 9.0 ± 0.2 | 9.0 | Cc1nc(-c2cc(F)c(CC(=O)Nc3noc4c3CCCC4)c(F)c2)c(C)[nH]1 [compound 23] | 42.92 | 33.8 | 67.4 | 68.66 | percentage cell viability [6]: 73.95%; viability at 100 µM [6]: 60.6%; fraction unbound at 4 h, 10 µM [7]: 0.048; percentage cell viability [8]: 61.96% and 97.34% |
